Results: PubChem BioAssay (NCI)
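Cells were grown in 96-well plates and exposed to each compound for 48 hours at five concentrations; endpoints were interpolated linearly between bracketing concentrations, or set to the highest concentration if not reached. GI50 = concentration required for 50% inhibition of growth. Definition used: TGI = concentration required for complete inhibition of growth.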

How the values were obtained:
Experiment in all cases: DTP human tumour cell line panel, 48 h
A549 NSCLC = system: A549 NSCLC
UACC-257 melanoma = system: UACC-257 melanoma
UO-31 renal = system: UO-31 renal
OVCAR-8 ovarian = system: OVCAR-8 ovarian
SF-295 CNS = system: SF-295 CNS
KM12 colon = system: KM12 colon
T-47D breast = system: T-47D breast
A498 renal = system: A498 renal
SW-620 colon = system: SW-620 colon
CAKI-1 renal = system: CAKI-1 renal
OVCAR-3 ovarian = system: OVCAR-3 ovarian
HOP-62 NSCLC = system: HOP-62 NSCLC
786-0 renal = system: 786-0 renal
U251 CNS = system: U251 CNS
IGROV1 ovarian = system: IGROV1 ovarian
UACC-62 melanoma = system: UACC-62 melanoma
HOP-92 NSCLC = system: HOP-92 NSCLC
MOLT-4 leukemia = system: MOLT-4 leukemia
PC-3 prostate = system: PC-3 prostate
NCI-H226 lung = system: NCI-H226 lung
SF-268 CNS = system: SF-268 CNS
HL-60(TB) leukemia = system: HL-60(TB) leukemia
MALME-3M melanoma = system: MALME-3M melanoma
SN12C renal = system: SN12C renal
SNB-19 CNS = system: SNB-19 CNS
HCT-15 colon = system: HCT-15 colon
DU-145 prostate = system: DU-145 prostate
HCT-116 colon = system: HCT-116 colon
SF-539 CNS = system: SF-539 CNS
HS 578T breast = system: HS 578T breast
HCC-2998 colon = system: HCC-2998 colon
HT29 colon = system: HT29 colon
MCF7 breast = system: MCF7 breast
SNB-75 CNS = system: SNB-75 CNS
SK-MEL-2 melanoma = system: SK-MEL-2 melanoma
RPMI-8226 leukemia = system: RPMI-8226 leukemia
OVCAR-4 ovarian = system: OVCAR-4 ovarian
NCI-H460 lung = system: NCI-H460 lung
LOX IMVI melanoma = system: LOX IMVI melanoma
BT-549 breast = system: BT-549 breast
COLO 205 colon = system: COLO 205 colon
NCI/ADR-RES ovarian = system: NCI/ADR-RES ovarian
CCRF-CEM leukemia = system: CCRF-CEM leukemia
TK-10 renal = system: TK-10 renal
SK-MEL-28 melanoma = system: SK-MEL-28 melanoma
RXF 393 renal = system: RXF 393 renal
MDA-MB-231 breast = system: MDA-MB-231 breast
OVCAR-5 ovarian = system: OVCAR-5 ovarian
EKVX NSCLC = system: EKVX NSCLC
ACHN renal = system: ACHN renal
NCI-H23 lung = system: NCI-H23 lung
SR leukemia = system: SR leukemia
SK-MEL-5 melanoma = system: SK-MEL-5 melanoma
M14 melanoma = system: M14 melanoma
SK-OV-3 ovarian = system: SK-OV-3 ovarian
K-562 leukemia = system: K-562 leukemia

Compound: O=C(NCCCCNC(=O)OCc1ccc2c(Cl)cc(Cl)c(O)c2n1)OCc1ccc2c(Cl)cc(Cl)c(O)c2n1
- GI50 (A549 NSCLC): 6.33 µM
- TGI (A549 NSCLC): > 100 µM
- GI50 (UACC-257 melanoma): 31.4 µM
- TGI (UACC-257 melanoma): > 100 µM
- GI50 (UO-31 renal): 1.65 µM
- TGI (UO-31 renal): > 100 µM
- GI50 (OVCAR-8 ovarian): 0.458 µM
- TGI (OVCAR-8 ovarian): > 100 µM
- GI50 (SF-295 CNS): 4.17 µM
- TGI (SF-295 CNS): > 100 µM
- GI50 (KM12 colon): 0.543 µM
- TGI (KM12 colon): > 100 µM
- GI50 (T-47D breast): 7.61 µM
- TGI (T-47D breast): > 100 µM
- GI50 (A498 renal): 0.295 µM
- TGI (A498 renal): 5.23 µM
- GI50 (SW-620 colon): 0.486 µM
- TGI (SW-620 colon): > 100 µM
- GI50 (CAKI-1 renal): 0.782 µM
- TGI (CAKI-1 renal): > 100 µM
- GI50 (OVCAR-3 ovarian): 0.442 µM
- TGI (OVCAR-3 ovarian): > 100 µM
- GI50 (HOP-62 NSCLC): 2.61 µM
- TGI (HOP-62 NSCLC): > 100 µM
- GI50 (786-0 renal): 4.95 µM
- TGI (786-0 renal): > 100 µM
- GI50 (U251 CNS): 2.84 µM
- TGI (U251 CNS): > 100 µM
- GI50 (IGROV1 ovarian): 1.22 µM
- TGI (IGROV1 ovarian): > 100 µM
- GI50 (UACC-62 melanoma): 2.21 µM
- TGI (UACC-62 melanoma): 86.7 µM
- GI50 (HOP-92 NSCLC): 3.86 µM
- TGI (HOP-92 NSCLC): > 100 µM
- GI50 (MOLT-4 leukemia): 0.591 µM
- TGI (MOLT-4 leukemia): > 100 µM
- GI50 (PC-3 prostate): 1.64 µM
- TGI (PC-3 prostate): > 100 µM
- GI50 (NCI-H226 lung): 24.3 µM
- TGI (NCI-H226 lung): > 100 µM
- GI50 (SF-268 CNS): 1.25 µM
- TGI (SF-268 CNS): > 100 µM
- GI50 (HL-60(TB) leukemia): 0.499 µM
- TGI (HL-60(TB) leukemia): 2.2 µM
- GI50 (MALME-3M melanoma): 2.87 µM
- TGI (MALME-3M melanoma): > 100 µM
- GI50 (SN12C renal): 0.762 µM
- TGI (SN12C renal): > 100 µM
- GI50 (SNB-19 CNS): 4.7 µM
- TGI (SNB-19 CNS): > 100 µM
- GI50 (HCT-15 colon): 0.89 µM
- TGI (HCT-15 colon): > 100 µM
- GI50 (DU-145 prostate): 0.855 µM
- TGI (DU-145 prostate): > 100 µM
- GI50 (HCT-116 colon): 0.359 µM
- TGI (HCT-116 colon): > 100 µM
- GI50 (SF-539 CNS): 0.288 µM
- TGI (SF-539 CNS): 1.4 µM
- GI50 (HS 578T breast): 0.979 µM
- TGI (HS 578T breast): > 100 µM
- GI50 (HCC-2998 colon): 3.62 µM
- TGI (HCC-2998 colon): > 100 µM
- GI50 (HT29 colon): 43.7 µM
- TGI (HT29 colon): > 100 µM
- GI50 (MCF7 breast): 0.406 µM
- TGI (MCF7 breast): > 100 µM
- GI50 (SNB-75 CNS): 1.23 µM
- TGI (SNB-75 CNS): > 100 µM
- GI50 (SK-MEL-2 melanoma): 1.94 µM
- TGI (SK-MEL-2 melanoma): > 100 µM
- GI50 (RPMI-8226 leukemia): 0.336 µM
- TGI (RPMI-8226 leukemia): > 100 µM
- GI50 (OVCAR-4 ovarian): 4.47 µM
- TGI (OVCAR-4 ovarian): > 100 µM
- GI50 (NCI-H460 lung): 0.521 µM
- TGI (NCI-H460 lung): > 100 µM
- GI50 (LOX IMVI melanoma): 0.72 µM
- TGI (LOX IMVI melanoma): > 100 µM
- GI50 (BT-549 breast): 2.27 µM
- TGI (BT-549 breast): > 100 µM
- GI50 (COLO 205 colon): 24.4 µM
- TGI (COLO 205 colon): > 100 µM
- GI50 (NCI/ADR-RES ovarian): 0.336 µM
- TGI (NCI/ADR-RES ovarian): > 100 µM
- GI50 (CCRF-CEM leukemia): 0.398 µM
- TGI (CCRF-CEM leukemia): > 100 µM
- GI50 (TK-10 renal): 13.8 µM
- TGI (TK-10 renal): > 100 µM
- GI50 (SK-MEL-28 melanoma): 0.809 µM
- TGI (SK-MEL-28 melanoma): > 100 µM
- GI50 (RXF 393 renal): 3.38 µM
- TGI (RXF 393 renal): > 100 µM
- GI50 (MDA-MB-231 breast): 0.685 µM
- TGI (MDA-MB-231 breast): > 100 µM
- GI50 (OVCAR-5 ovarian): 47.1 µM
- TGI (OVCAR-5 ovarian): > 100 µM
- GI50 (EKVX NSCLC): 10.6 µM
- TGI (EKVX NSCLC): > 100 µM
- GI50 (ACHN renal): 0.537 µM
- TGI (ACHN renal): > 100 µM
- GI50 (NCI-H23 lung): 1.83 µM
- TGI (NCI-H23 lung): > 100 µM
- GI50 (SR leukemia): 0.422 µM
- TGI (SR leukemia): > 100 µM
- GI50 (SK-MEL-5 melanoma): 1.2 µM
- TGI (SK-MEL-5 melanoma): 3.95 µM
- GI50 (M14 melanoma): 0.502 µM
- TGI (M14 melanoma): > 100 µM
- GI50 (SK-OV-3 ovarian): 5.12 µM
- TGI (SK-OV-3 ovarian): > 100 µM
- GI50 (K-562 leukemia): 0.586 µM
- TGI (K-562 leukemia): > 100 µM
